This is an account of results in patent US20230115208A1, “RING-FUSED THIAZOLINO 2-PYRIDONES, METHODS FOR PREPARATION THEREOF AND THEIR USE IN THE TREATMENT AND/OR PREVENTION OF TUBERCULOSIS” (QURETECH BIO AB, priority 2016, published 2023).

This assay deals with katGFSAA6 Mtb (INH-resistant, frameshift at amino acid 6 in katG). In kind it is cell-based, Mycobacterium tuberculosis.

Take `O=C(O)[C@@H]1CSc2c(C3CC3)c(Cc3cccc4ccccc34)cc(=O)n21` [Example 1, (3R)-7-Cyclopropyl-6-[(1-naphthyl)methyl]-4-oxo-1-thia-3a-aza-3-indancarboxylic acid]: the doubling time stood at 48 h. `NNC(=O)c1ccncc1` [INH, isonicotinylhydrazide, reference compound]: the doubling time was 55 h.
